Laboratory results published in patent US20240181006A1, “POLYPEPTIDES BINDING ADAMTS5, MMP13 AND AGGRECAN” (Merck Patent GmbH, priority 2017, published 2024).

Key:
[1] = test system: bovine cartilage explants; assay: bovine cartilage explant assay, IL-1α, GAG release (polypeptide 949); assay type: cell-based; conditions: 5 days with IL-1α, FIG. 3
Procedure: FIG. 3: Efficacy of polypeptide 949 (“NB949”) in bovine cartilage explant assay.
In short, the polypeptide was incubated with bovine cartilage explants that were cultured 5 days with IL-1α to induce an OA-like cartilage degradation process. Within 5 days, degradation of primarily Aggrecan ensues, whereas Collagen degradation only occurs after about two weeks, i.e., after termination of the experiments described here. At the end of the experiment, the GAG (mainly derived from Aggrecan) which was released from the degrading cartilage into the culture supernatant was quantified.

[2] = test system: human cartilage explants; assay: human cartilage explant assay, IL-1β + OSM, GAG release; assay type: cell-based; conditions: reference set at 100%, FIG. 4
Procedure: FIG. 4: Efficacy of polypeptide 949 in a human cartilage explant assay.
Polypeptide 949 (M-A-C-C: 62C02-2F03-114F08-114F08) was tested in human cartilage explant assays for inhibition of cartilage degradation. Briefly, the polypeptide was incubated with human cartilage explants that were cultured 7 days with IL-1β+Oncostatin M (OSM). Within 7 days, degradation of primarily Aggrecan ensues, whereas Collagen degradation only occurs after about two weeks, i.e., after termination of the experiments described here. At the end of the experiment, the GAG (mainly derived from Aggrecan) which was released from the degrading cartilage into the culture supernatant was quantified. The IC50 was calculated on the basis of the negative control level (=GAG release from explants without additional stimulus) and the IL-1 β+OSM level, as measure for maximal GAG loss. GAG is shown as GAG release (in μg) per mg cartilage of each individual explant.

SMILES: CC(C)(Cc1ccc(F)cc1)NC(=O)[C@H](CCC(=O)O)NC(=O)c1ccc(-c2ccccc2)cc1 [AGG-523]
- inhibition of bovine cartilage degradation (IL-1α stimulated GAG release) [1]: fully inhibits
- inhibition of stimulated GAG release in human cartilage explant assay [2]: fully inhibits
